Test results taken from patent US11274124B2, “Tubulysin analogues as anticancer agents and payloads for antibody-drug conjugates and methods of treatment therewith” (William Marsh Rice University, priority 2017, dated 2022).
Read-outs that look alike come from different tables or passages of the source.

Experiments:
[1] = test system: MES SA, MES SA DX and HEK 293T cells; experiment: In vitro cytotoxicity assay, structure-activity discussion over the cell lines tested; conditions: refers to Tables 2 and 3
[2] = test system: MES SA (uterine sarcoma cell line); experiment: In vitro cytotoxicity assay (CellTiter-Glo, 72 hours), MES SA; format: cell-based; conditions: Homo sapiens, MES-SA, 72 h
[3] = test system: HEK 293T (human embryonic kidney cancer cell line); experiment: In vitro cytotoxicity assay (CellTiter-Glo, 72 hours), HEK 293T; format: cell-based; conditions: Homo sapiens, HEK-293T, 72 h
[4] = test system: MES SA DX (MES SA cell line with marked multi-drug resistance); experiment: In vitro cytotoxicity assay (CellTiter-Glo, 72 hours), MES SA DX; conditions: for IC50: Homo sapiens, MES-SA, 72 h
[5] = read-out: MES SA, IC50 Value in nM
[6] = read-out: HEK 293T, IC50 Value in nM
[7] = read-out: MES SA DX, IC50 Value in nM

| Compound | cytotoxicity potency (in words, structure-activity discussion) [1] | IC50 [2, 5] | IC50 [3, 6] | IC50 [4, 7] | IC50 ([2]; read-out: MES SA, IC50) | IC50 ([3]; read-out: HEK 293T, IC50) | cytotoxicities against the marked drug resistant cancer cell line MES SA DX (in words) [4] | IC50 ([4]; read-out: MES SA DX, IC50) |
| --- | --- | --- | --- | --- | --- | --- | --- | --- |
| CC[C@H](C)[C@H](NC(=O)[C@H]1CCCCN1C)C(=O)N(C)[C@H](CCc1nc(C(=O)N[C@@H](Cc2ccccc2)C[C@H](C)C(=O)OC)cs1)C(C)C [PTb-D42] | significant reduction in potency | – | – | – | – | – | – | – |
| COC(=O)[C@@H](C)C[C@H](Cc1ccccc1)NC(=O)c1csc([C@@H](C[C@H](C(C)C)N(C)C(=O)[C@@H](NC(=O)[C@H]2CCCCN2C)C(C(F)(F)F)C(F)(F)F)OC(C)=O)n1 [Tb79, Methyl (2S,4R)-4-[({2-[(1R,3R)-1-acetoxy-4-methyl-3-{methyl[(2S)-4,4,4-trifluoro-2-({[(2R)-1-meth-ylpiperidin-2-yl]carbonyl}amino)-3-(trifluoromethyl)butanoyl]amino}pentyl]-1,3-thiazol-4-yl}carbonyl)amino]-2-methyl-5-phenylpentanoate] | – | 39.1 nM | 36.4 nM | > 1000 nM | – | – | – | – |
| CCN[C@@H](C[C@H](Cc1ccccc1)NC(=O)c1csc([C@@H](C[C@H](C(C)C)N(C)C(=O)[C@@H](NC(=O)[C@H]2CCCCN2C)C(C)C)OC(C)=O)n1)C(=O)OC [Tb118, Methyl (2S)-4-{[(2-{1-acetoxy-4-methyl-3-[methyl(3-methyl-2-{[(1-methylpiperidin-2-yl)carbonyl]-amino}butanoyl)amino]pentyl}-1,3-thiazol-4-yl)carbonyl]amino}-2-(ethylamino)-5-phenylpentanoate] | – | 0.14 nM | 0.015 nM | 5.6 nM | 0.14 nM | 0.015 nM | relatively potent (low nanomolar) | 5.6 nM |
| CC(=O)O[C@H](C[C@H](C(C)C)N(C)C(=O)[C@@H](NC(=O)[C@H]1CCCCN1C)C(C)C)c1nc(C(=O)NC(Cc2ccccc2)C[C@H](C)C(=O)O)c(CCOCc2ccccc2)s1 (stereo in doubt) [Tb111, (2S,4S)-4-[({2-[(1R,3R)-1-acetoxy-4-methyl-3-{methyl[(2S)-3-methyl-2-{[(1-methylpiperidin-2-yl)carbonyl]amino}butanoyl]amino}pentyl]-5-[2-(benzyloxy)ethyl]-1,3-thiazol-4-yl}carbonyl)-amino]-2-methyl-5-phenylpentanoic acid] | – | 0.04 nM | 0.006 nM | 1.54 nM | 0.04 nM | 0.006 nM | relatively potent (low nanomolar) | 1.54 nM |
| COC(=O)[C@@H](C)C[C@H](Cc1ccccc1)NC(=O)c1csc([C@@H](C[C@H](C(C)C)N(C)C(=O)[C@H](C)NC(=O)[C@H]2CCCN2C)OC(C)=O)n1 [Tb90, Methyl (2S,4R)-4-[({2-[(1R,3R)-1-acetoxy-4-methyl-3-{methyl[(2S)-2-({[(2R)-1-methylpyrrolidin-2-yl]carbonyl}amino)propanoyl]amino}pentyl]-1,3-thiazol-4-yl}carbonyl)amino]-2-methyl-5-phenylpentanoate] | – | > 1000 nM | 636 nM | > 1000 nM | – | – | – | – |
| CC[C@H](C)[C@H](NC(=O)[C@H]1CCCCN1C)C(=O)N(C)[C@H](CCc1nc(C(=O)N[C@@H](Cc2ccccc2)C[C@H](C)C(=O)O)cs1)C(C)C [PTb-D43, pretubulysin D, reference compound] | significant reduction in potency | – | – | – | – | – | – | – |
| COC(=O)[C@@H](C)C[C@H](Cc1ccccc1)NC(=O)c1csc([C@@H](C[C@H](C(C)C)N(C)C(=O)[C@H](NC(=O)[C@H]2CCCCN2C)C(C(F)(F)F)C(F)(F)F)OC(C)=O)n1 [Tb85, Methyl(2S,4R)-4-[({2-[(1R,3R)-1-acetoxy-4-methyl-3-{methyl[(2R)-4,4,4-trifluoro-2-({[(2R)-1-meth-ylpiperidin-2-yl]carbonyl}amino)-3-(trifluoromethyl)butanoyl]amino}pentyl]-1,3-thiazol-4-yl}-carbonyl)amino]-2-methyl-5-phenylpentanoate] | – | 37.3 nM | 32.4 nM | > 1000 nM | – | – | – | – |
| CC(=O)O[C@H](C[C@H](C(C)C)N(C)C(=O)[C@H](C)NC(=O)[C@H]1CCCN1C)c1nc(C(=O)N[C@@H](Cc2ccccc2)C[C@H](C)C(=O)O)cs1 [Tb92, (2S,4R)-4-[({2-[(1R,3R)-1-Acetoxy-4-methyl-3-{methyl[(2S)-2-({[(2R)-1-methylpyrrolidin-2-yl]car-bonyl}amino)propanoyl]amino}pentyl]-1,3-thiazol-4-yl}carbonyl)amino]-2-methyl-5-phenylpentanoic acid] | – | > 1000 nM | > 1000 nM | > 1000 nM | – | – | – | – |
| COC(=O)[C@@H](C)C[C@H](Cc1ccccc1)NC(=O)c1csc([C@@H](C[C@H](C(C)C)N(C)C(=O)[C@H](NC(=O)[C@H]2CCCN2C)C(C(F)(F)F)C(F)(F)F)OC(C)=O)n1 [Tb86, Methyl (2S,4R)-4-[({2-[(1R,3R)-1-acetoxy-4-methyl-3-{methyl[(2R)-4,4,4-trifluoro-2-({[(2R)-1-meth-ylpyrrolidin-2-yl]carbonyl}amino)-3-(trifluoromethyl)butanoyl]amino}pentyl]-1,3-thiazol-4-yl}car-bonyl)amino]-2-methyl-5-phenylpentanoate] | – | > 1000 nM | > 1000 nM | > 1000 nM | – | – | – | – |
| CC(=O)O[C@H](CC(C(C)C)N(C)C(=O)[C@@H](NC(=O)[C@H]1CCCCN1C)C(C)C)c1nc(C(=O)NC(Cc2ccccc2)CC(C)C(=O)O)c(CCO)s1 (stereo in doubt) [Tb113, (2R,4S)-4-[({2-[(1R,3S)-1-Acetoxy-4-methyl-3-{methyl[(2S)-3-methyl-2-{[(1-methylpiperidin-2-yl)-carbonyl]amino}butanoyl]amino}pentyl]-5-(2-hydroxyethyl)-1,3-thiazol-4-yl}carbonyl)amino]-2-methyl-5-phenylpentanoic acid] | – | 5.79 nM | 0.315 nM | > 400 nM | – | – | – | – |
| COC(=O)[C@@H](C)C[C@H](Cc1ccccc1)NC(=O)c1cccc([C@@H](C[C@H](C(C)C)N(C)C(=O)[C@@H](NC(=O)[C@H]2CCCCN2C)C(C)C)OC(C)=O)n1 [Tb64, Methyl (2S,4R)-4-[({6-[(1R,3R)-1-acetoxy-4-methyl-3-{methyl[(2S)-3-methyl-2-({[(2R)-1-methyl-piperidin-2-yl]carbonyl}amino)butanoyl]amino}pentyl]pyridin-2-yl}carbonyl)amino]-2-methyl-5-phenylpentanoate] | – | 0.22 nM | 0.1 nM | 109 nM | 0.22 nM | 0.1 nM | – | 109 nM |
| CC(=O)O[C@H](C[C@H](C(C)C)N(C)C(=O)[C@@H](NC(=O)[C@H]1CCCCN1C)C(C)C)c1cccc(C(=O)N[C@@H](Cc2ccccc2)C[C@H](C)C(=O)O)n1 [Tb65, (2S,4R)-4-[({6-[(1R,3R)-1-Acetoxy-4-methyl-3-{methyl[(2S)-3-methyl-2-({[(2R)-1-methylpiperidin-2-yl]carbonyl}amino)butanoyl]amino}pentyl]pyridin-2-yl}carbonyl)amino]-2-methyl-5-phenylpentanoic acid] | – | 2.44 nM | 2.04 nM | 279 nM | – | – | – | – |
